Data: US20070117743A1, “New antitumoral compounds” (priority 2003, published 2007)
Read-outs that look alike come from different tables or passages of the source. Where a SMILES comes first, the peptide text is derived from it. Bridges are numbered along the chain shown (N, C = ends). [ ]: non-standard residue; d: D form. The star is where a group is joined. Hexanoyl(4S-Me) = CC[C@H](C)CCC(=O)*; d(aIle) = CC[C@H](C)[C@@H](N)C(=O)O; d(aThr) = C[C@@H](O)[C@@H](N)C(=O)O; 2Thi = N[C@@H](Cc1cccs1)C(=O)O; Orn = NCCC[C@H](N)C(=O)O; Dhb = C/C=C(\N)C(=O)O

Tests used:
Type in all cases: cell-based, human
HeLa-APL = assay: SRB colorimetric assay of cell growth and viability, HeLa-APL; details: 48 hours exposure, SRB; for CC50: read-out: LC50 HELA-APL
PANC-1 = assay: SRB colorimetric assay of cell growth and viability, PANC-1; details: 48 hours exposure; for CC50: read-out: LC50 PANC-1
DU-145 = assay: SRB colorimetric assay of cell growth and viability, DU-145; details: 48 hours exposure
LoVo-Dox = assay: SRB colorimetric assay of cell growth and viability, LoVo-Dox; details: 48 hours exposure; for CC50: read-out: LC50 LOVO-DOX
Method in brief: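 SRB staining (0.4% wt/vol in 1% acetic acid, 10 min, room temperature) of cells fixed with 50% TCA follows a 48-hour exposure to compound. Plating density is 5×10^3 cells/well, and the OD is taken at 490 nm.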

SK-BR-3 = assay: SRB colorimetric assay of cell growth and viability, SK-BR-3; details: 48 hours exposure
Description: The finality of this assay is to interrupt the growth of a “in vitro” tumor cell culture by means a continued exhibition of the cells to the sample to be testing.
This form of the assay employs 96 well cell culture microplates of 9 mm diameter (Faircloth, 1988; Mosmann, 1983). Most of the cell lines are obtained from American Type Culture Collection (ATCC) derived from different human cancer types.
Cells are maintained in RPMI 1640 10% FBS, supplemented with 0.1 g/l penicillin and 0.1 g/l streptomycin sulfate and then incubated at 37° C., 5% CO2 and 98% humidity. For the experiments, cells were harvested from subconfluent cultures using trypsin and resuspended in fresh medium before plating.
Cells are seeded in 96 well microtiter plates, at 5×10^3 cells per well in aliquots of 195 μL medium, and they are allowed to attach to the plate surface by growing in drug free medium for 18 hours. Afterward, samples are added in aliquots of 5 μL in a ranging from 10 to 10^−8 μg/mL, dissolved in DMSO:EtOH:PBS (0.5:0.5:99). After 48 hours exposure, the antitumor effect are measured by the SRB methodology: cells are fixed by adding 50 μL of cold 50% (wt/vol) trichloroacetic acid (TCA) and incubating for 60 minutes at 4° C. Plates are washed with deionized water and dried. One hundred μL of SRB solution (0.4% wt/vol in 1% acetic acid) is added to each microtiter well and incubated for 10 minutes at room temperature. Unbound SRB is removed by washing with 1% acetic acid. Plates are air dried and bound stain is solubilized with Tris buffer. Optical densities are read on a automated spectrophotometric plate reader at a single wavelength of 490 nm.
The values for mean+/− SD of data from triplicate wells are calculated. Some parameters for cellular responses can be calculated: GI=growth inhibition, TGI=total growth inhibition (cytostatic effect) and LC=cell killing (cytotoxic effect).

HeLa = assay: SRB colorimetric assay of cell growth and viability, HeLa; details: 48 hours exposure; for CC50: read-out: LC50 HELA
IGROV-1 = assay: SRB colorimetric assay of cell growth and viability, IGROV-1; details: 48 hours exposure
A-549 = assay: SRB colorimetric assay of cell growth and viability, A-549; details: 48 hours exposure; for GI50: read-out: GI50 A-549; for CC50: read-out: LC50 A-549
HT-29 = assay: SRB colorimetric assay of cell growth and viability, HT-29; details: 48 hours exposure; for GI50: read-out: GI50 HT-29; for CC50: read-out: LC50 HT-29
IGROV-ET = assay: SRB colorimetric assay of cell growth and viability, IGROV-ET; details: 48 hours exposure; for CC50: read-out: LC50 IGROV-ET
K-562 = assay: SRB colorimetric assay of cell growth and viability, K-562; details: 48 hours exposure; for CC50: read-out: LC50 K-562
LoVo = assay: SRB colorimetric assay of cell growth and viability, LoVo; details: 48 hours exposure; for CC50: read-out: LC50 LOVO
SK-MEL-28 = assay: SRB colorimetric assay of cell growth and viability, SK-MEL-28; details: 48 hours exposure; for CC50: read-out: LC50 MEL-28

Compound: C/C=C1\NC(=O)[C@H](Cc2ccc(OC)cc2)NC(=O)[C@@H](C(C)C)NC(=O)[C@@H]([C@@H](C)CC)NC(=O)[C@H](NC(=O)[C@H](NC(=O)[C@H](CCCN)NC(=O)[C@H]2CCCN2C(=O)[C@H](NC(=O)[C@@H](NC(=O)[C@@H](NC(=O)[C@H](NC(=O)CC[C@@H](C)CC)C(C)C)[C@@H](C)O)C(C)C)C(C)C)[C@@H](C)CC)[C@@H](C)OC(=O)[C@H](C(C)C)NC1=O [Compound 75, [Tyr(Me)^3, (4S)-MeHex^14]-KF] ({Hexanoyl(4S-Me)}-[dV]TV[dV][dP][Orn][d(aIle)][d(aThr)][d(aIle)][dV]Y(Me)[Dhb]V; ester 8-C)
- GI50 (HeLa-APL): 942 nM
- TGI HELA-APL (HeLa-APL): 1.78E−06 Molar
- CC50 (HeLa-APL): 3380 nM
- GI50 (PANC-1; SRB): 1700 nM
- TGI PANC-1 (PANC-1; SRB): 3.08E−06 Molar
- CC50 (PANC-1; SRB): 5590 nM
- GI50 (DU-145; SRB): 749 nM
- LC50 (concentration causing 50% net cell kill) (DU-145; SRB): 3160 nM
- TGI DU-145 (DU-145; SRB): 1.54E−06 Molar
- GI50 (LoVo-Dox; SRB): 137 nM
- TGI LOVO-DOX (LoVo-Dox; SRB): 2.27E−07 Molar
- CC50 (LoVo-Dox; SRB): 379 nM
- GI50 (SK-BR-3; SRB): 251 nM
- LC50 (SK-BR-3; SRB): 2380 nM
- TGI SK-BR-3 (SK-BR-3; SRB): 6.03E−07 Molar
- GI50 (HeLa; SRB): 509 nM
- TGI HELA (HeLa; SRB): 1.18E−06 Molar
- CC50 (HeLa; SRB): 2500 nM
- GI50 (IGROV-1; SRB): 350 nM
- LC50 (concentration causing 50% net cell killing) (IGROV-1; SRB): 2360 nM
- TGI IGROV (IGROV-1; SRB): 8.36E−07 Molar
- TGI A-549 (A-549; SRB): 1.91E−06 Molar
- GI50 (A-549; SRB): 1030 nM
- CC50 (A-549; SRB): 3550 nM
- TGI HT-29 (HT-29; SRB): 2.80E−07 Molar
- GI50 (HT-29; SRB): 158 nM
- CC50 (HT-29; SRB): 495 nM
- GI50 (IGROV-ET; SRB): 380 nM
- TGI IGROV-ET (IGROV-ET; SRB): 9.09E−07 Molar
- CC50 (IGROV-ET; SRB): 2410 nM
- GI50 (K-562; SRB): 533 nM
- TGI K-562 (K-562; SRB): 2.15E−06 Molar
- CC50 (K-562; SRB): 6630 nM
- GI50 (LoVo; SRB): 126 nM
- TGI LOVO (LoVo; SRB): 2.22E−07 Molar
- CC50 (LoVo; SRB): 391 nM
- GI50 (SK-MEL-28; SRB): 975 nM
- TGI MEL-28 (SK-MEL-28; SRB): 1.82E−06 Molar
- CC50 (SK-MEL-28; SRB): 3400 nM

Compound: C/C=C1\NC(=O)[C@H](Cc2cccs2)NC(=O)[C@@H](C(C)C)NC(=O)[C@@H]([C@@H](C)CC)NC(=O)[C@H](NC(=O)[C@H](NC(=O)[C@H](CCCN)NC(=O)[C@H]2CCCN2C(=O)[C@H](NC(=O)[C@@H](NC(=O)[C@@H](NC(=O)[C@H](NC(=O)CC[C@@H](C)CC)C(C)C)[C@@H](C)O)C(C)C)C(C)C)[C@@H](C)CC)[C@@H](C)OC(=O)[C@H](C(C)C)NC1=O [Compound 76, [Thi^3, (4S)-MeHex^14]-KF] ({Hexanoyl(4S-Me)}-[dV]TV[dV][dP][Orn][d(aIle)][d(aThr)][d(aIle)][dV][2Thi][Dhb]V; ester 8-C)
- GI50 (HeLa-APL): 1350 nM
- TGI HELA-APL (HeLa-APL): 2.28E−06 Molar
- CC50 (HeLa-APL): 3860 nM
- GI50 (PANC-1; SRB): 5930 nM
- TGI PANC-1 (PANC-1; SRB): 6.74E−06 Molar
- CC50 (PANC-1; SRB): 6740 nM
- GI50 (DU-145; SRB): 1200 nM
- LC50 (concentration causing 50% net cell kill) (DU-145; SRB): 3750 nM
- TGI DU-145 (DU-145; SRB): 2.12E−06 Molar
- GI50 (LoVo-Dox; SRB): 147 nM
- TGI LOVO-DOX (LoVo-Dox; SRB): 2.61E−07 Molar
- CC50 (LoVo-Dox; SRB): 463 nM
- GI50 (SK-BR-3; SRB): 313 nM
- LC50 (SK-BR-3; SRB): 2040 nM
- TGI SK-BR-3 (SK-BR-3; SRB): 6.26E−07 Molar
- GI50 (HeLa; SRB): 1180 nM
- TGI HELA (HeLa; SRB): 2.01E−06 Molar
- CC50 (HeLa; SRB): 3450 nM
- GI50 (IGROV-1; SRB): 1180 nM
- LC50 (concentration causing 50% net cell killing) (IGROV-1; SRB): 3870 nM
- TGI IGROV (IGROV-1; SRB): 2.14E−06 Molar
- TGI A-549 (A-549; SRB): 2.60E−06 Molar
- GI50 (A-549; SRB): 1530 nM
- CC50 (A-549; SRB): 4430 nM
- TGI HT-29 (HT-29; SRB): 1.74E−06 Molar
- GI50 (HT-29; SRB): 842 nM
- CC50 (HT-29; SRB): 3590 nM
- GI50 (IGROV-ET; SRB): 1000 nM
- TGI IGROV-ET (IGROV-ET; SRB): 1.85E−06 Molar
- CC50 (IGROV-ET; SRB): 3410 nM
- GI50 (K-562; SRB): 1710 nM
- TGI K-562 (K-562; SRB): 4.01E−06 Molar
- CC50 (K-562; SRB): 6740 nM
- GI50 (LoVo; SRB): 243 nM
- TGI LOVO (LoVo; SRB): 7.21E−07 Molar
- CC50 (LoVo; SRB): 2160 nM
- GI50 (SK-MEL-28; SRB): 1540 nM
- TGI MEL-28 (SK-MEL-28; SRB): 2.52E−06 Molar
- CC50 (SK-MEL-28; SRB): 4140 nM

Compound: [2H]C([2H])([2H])C([2H])(C([2H])([2H])[2H])[C@]([2H])(NC(=O)[C@@H](NC(=O)[C@H](NC(=O)CCCC(C)C)C(C)C)[C@@H](C)O)C(=O)N[C@@H](C(=O)N1CCC[C@@H]1C(=O)N[C@@H](CCCN)C(=O)N[C@@H](C(=O)N[C@H]1C(=O)N[C@H]([C@@H](C)CC)C(=O)N[C@H](C(C)C)C(=O)N[C@@H](Cc2ccccc2)C(=O)N/C(=C\C)C(=O)N[C@@H](C(C)C)C(=O)O[C@@H]1C)[C@@H](C)CC)C(C)C [Compound 100, [L-Val-d8^11]-KF]
- GI50 (PANC-1; PANC-1): 1880 nM
- TGI PANC-1 (PANC-1; PANC-1): 1.88E−06 Molar
- CC50 (PANC-1; PANC-1): 1880 nM
- GI50 (DU-145; SRB): 544 nM
- TGI DU-145 (DU-145; SRB): 9.69E−07 Molar
- LC50 (concentration causing 50% net cell kill) (DU-145; DU-145): 1590 nM
- GI50 (LoVo-Dox; LOVO-DOX): 123 nM
- TGI LOVO-DOX (LoVo-Dox; LOVO-DOX): 6.88E−07 Molar
- CC50 (LoVo-Dox; LOVO-DOX): 1380 nM
- GI50 (SK-BR-3; SRB): 348 nM
- TGI SK-BR-3 (SK-BR-3; SRB): 8.19E−07 Molar
- LC50 (SK-BR-3; SK-BR-3): 1450 nM
- GI50 (HeLa; HELA): 681 nM
- TGI HELA (HeLa; HELA): 1.15E−06 Molar
- CC50 (HeLa; HELA): 1880 nM
- GI50 (IGROV-1; SRB): 781 nM
- TGI IGROV (IGROV-1; SRB): 1.16E−06 Molar
- LC50 (concentration causing 50% net cell killing) (IGROV-1; IGROV): 1730 nM
- TGI A-549 (A-549; A-549): 1.88E−06 Molar
- GI50 (A-549; A-549): 1880 nM
- CC50 (A-549; A-549): 1880 nM
- TGI HT-29 (HT-29; HT-29): 6.50E−07 Molar
- GI50 (HT-29; HT-29): 318 nM
- CC50 (HT-29; HT-29): 1180 nM
- GI50 (IGROV-ET; SRB): 399 nM
- TGI IGROV-ET (IGROV-ET; SRB): 7.63E−07 Molar
- CC50 (IGROV-ET; IGROV-ET): 1750 nM
- GI50 (K-562; K-562): 1880 nM
- TGI K-562 (K-562; K-562): 1.88E−06 Molar
- CC50 (K-562; K-562): 1880 nM
- GI50 (LoVo; LOVO): 181 nM
- TGI LOVO (LoVo; LOVO): 6.38E−07 Molar
- CC50 (LoVo; LOVO): 1260 nM
- GI50 (SK-MEL-28; SRB): 963 nM
- TGI MEL-28 (SK-MEL-28; SRB): 1.46E−06 Molar
- CC50 (SK-MEL-28; MEL-28): 1880 nM
